Measured values from patent publication US20010014748A1, “HIV INTEGRASE INHIBITORS” (priority 1998, published 2001).

These compounds were tested against T1, HIV integrase (Human immunodeficiency virus type 1 group M subtype B, UniProt P04585) (assay: HIV integrase assay: strand transfer catalyzed by recombinant integrase). Conditions: strand transfer activity of recombinant integrase.
T1 construct: strand transfer reaction catalyzed by the recombinant integrase in vitro
Type: biochemical
Experimental: HIV Integrase Assay: Strand Transfer Catalyzed by Recombinant Integrase
Assays for the strand transfer activity of integrase were conducted according to Wolfe, A. L. et al., J. Virol. 70, 1424 (1996, hereby incorporated by reference for these purposes. Data for representative compounds of the present invention follow: […]
`CC(=O)OC1C(O)C2=C(CCC3C2(C)CC(OC(=O)CCCCCCCCCCCCCCCO)C(OS(=O)(=O)O)C3(C)C)C2=CCC(C(C)CCC3(C(C)(C)O)CO3)C21C` (centres unmarked) [Compound A1] gave an IC50 of 14 µM. In the case of `C=C(CCC(C)C1CCC2C3=C(C(O)C(OC(C)=O)C21C)C1(C)CC(O)C(OS(=O)(=O)O)C(C)(C)C1CC3)C(C)C` (centres unmarked) [Compound A3], the IC50 is reported as 15 µM. `C=C(CCC(C)C1CC=C2C3=C(C(O)C(OC(C)=O)C21C)C1(C)CC(O)C(OC(=O)CCC(=O)O)C(C)(C)C1CC3)C(C)C` (centres unmarked) [Compound J] gave an IC50 of 16 µM. For `C=C(CCC(C)C1CC=C2C3=C(C(O)C(OC(C)=O)C21C)C1(C)CC(OC(=O)CCC(=O)O)C(O)C(C)(C)C1CC3)C(C)C` (centres unmarked) [Compound K], the IC50 was 68 µM. `C=C(CC[C@@H](C)[C@H]1CC=C2C3=C([C@@H](O)[C@H](OC(C)=O)C21C)C1(C)C[C@@H](OC(=O)CN)[C@H](OC(=O)CN)C(C)(C)[C@@H]1CC3)C(C)C` (some centres unmarked) [Compound X] showed an IC50 of 5 µM.
